# According to patent publication US20240342292A1, “Compounds for the Degradation of EGFR Kinase” (BeiGene Switzerland GmbH, priority 2021, published 2024):
# How the values were obtained:
# Del19/T790M/C797S EGFR = assay: EGFR degradation HTRF assay in H1975-clone #28 (DTC) cells; format: cell-based; details: H1975 # 28 DTC (Del19/T790M/C797S), 16h treatment; for DC50: HTRF; for Dmax (%): maximum percentage of degradation
# In short: (§1)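 Each homozygous H1975 clone was dosed for 16 h at 37 °C with an 8-dose, 5-fold series (top 10 uM, 0.2% DMSO). An HTRF antibody pair then measured EGFR in lysates, and a sigmoidal fit of percent inhibition gave DC50.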
# L858R/T790M/C797S EGFR = target: T1, L858R/T790M/C797S EGFR (Homo sapiens, UniProt P00533, C797S/L858R/T790M); assay: EGFR degradation HTRF assay in H1975-clone #25 (LTC) cells; format: cell-based; details: 16h treatment; for DC50: H1975 # 25-LTC (L858R/T790M/C797S), HTRF; for Dmax: NCI-H1975, H1975 # 25-LTC (L858R/T790M/C797S), maximum percentage of degradation
# T1 construct: expressed in transfected cells; host or cells: H1975 clone #25 (lentiviral over-expression, endogenous EGFR knocked out by sgRNA)
# T1 sequence (P00533 25-1210 T790M/C797S/L858R): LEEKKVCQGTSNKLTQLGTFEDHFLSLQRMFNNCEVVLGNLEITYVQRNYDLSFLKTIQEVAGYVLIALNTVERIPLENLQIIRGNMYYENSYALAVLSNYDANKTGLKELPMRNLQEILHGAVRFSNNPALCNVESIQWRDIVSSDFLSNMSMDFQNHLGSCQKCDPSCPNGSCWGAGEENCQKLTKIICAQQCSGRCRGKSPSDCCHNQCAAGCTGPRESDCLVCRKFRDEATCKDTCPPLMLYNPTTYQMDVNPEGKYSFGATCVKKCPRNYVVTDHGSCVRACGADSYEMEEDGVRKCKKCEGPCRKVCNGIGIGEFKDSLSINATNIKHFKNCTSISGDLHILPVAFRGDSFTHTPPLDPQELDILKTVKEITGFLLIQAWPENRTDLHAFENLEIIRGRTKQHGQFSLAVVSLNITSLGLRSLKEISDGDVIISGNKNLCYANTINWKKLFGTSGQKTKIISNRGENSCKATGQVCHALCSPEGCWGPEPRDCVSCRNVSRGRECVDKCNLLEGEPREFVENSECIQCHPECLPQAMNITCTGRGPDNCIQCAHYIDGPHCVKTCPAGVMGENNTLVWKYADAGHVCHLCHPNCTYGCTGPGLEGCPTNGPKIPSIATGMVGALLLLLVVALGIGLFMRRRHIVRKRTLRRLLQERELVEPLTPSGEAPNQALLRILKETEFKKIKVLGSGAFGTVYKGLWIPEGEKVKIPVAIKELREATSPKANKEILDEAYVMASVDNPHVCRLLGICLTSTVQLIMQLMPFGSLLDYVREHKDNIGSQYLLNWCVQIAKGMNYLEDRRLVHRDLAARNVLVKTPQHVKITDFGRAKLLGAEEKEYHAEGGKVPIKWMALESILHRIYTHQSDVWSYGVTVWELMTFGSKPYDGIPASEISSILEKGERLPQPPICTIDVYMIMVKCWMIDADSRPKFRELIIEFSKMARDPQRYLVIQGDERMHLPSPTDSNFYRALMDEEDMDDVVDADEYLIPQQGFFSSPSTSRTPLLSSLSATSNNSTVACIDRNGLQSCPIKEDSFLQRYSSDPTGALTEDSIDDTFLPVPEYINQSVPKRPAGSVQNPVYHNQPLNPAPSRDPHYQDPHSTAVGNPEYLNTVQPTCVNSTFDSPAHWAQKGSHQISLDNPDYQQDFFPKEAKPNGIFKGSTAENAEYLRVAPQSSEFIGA
# In short: as §1
DC50 (Del19/T790M/C797S EGFR),DC50 (L858R/T790M/C797S EGFR),Dmax (L858R/T790M/C797S EGFR),SMILES,Dmax (%) (Del19/T790M/C797S EGFR)
0.752 nM,0.638 nM,76.5%,"Cc1cc2cc(n1)-c1cnn(C)c1OCCC[C@@H](C)CN1/C(=N/C2=O)Nc2ccc(CN3CCN(C(=O)[C@@H]4CCN(c5cc(F)c([C@H]6CCC(=O)NC6=O)c(F)c5)C4)CC34COC4)cc21 [Example 199, (R)-3-(2,6-difluoro-4-((R)-3-(5-(((R,E)-1^1,2^6,7-trimethyl-3-oxo-5^2,5^3-dihydro-1^1H,5^1H-11-oxa-4-aza-5(2,1)-benzo[d]imidazola-2(2,4)-pyridina-1(4,5)-pyrazolacycloundecaphane-5^6-yl)methyl)-2-oxa-5,8-diazaspiro[3.5]nonane-8-carbonyl)pyrrolidin-1-yl)phenyl)piperidine-2,6-dione]",73.3%
1.38 nM,1.22 nM,86%,"Cc1cc2cc(n1)-c1cnn(C)c1OCCC[C@@H](C)CN1/C(=N/C2=O)Nc2ccc(CN3CCN(C(=O)[C@@H]4CCN(c5cc(F)c([C@H]6CCC(=O)NC6=O)c(F)c5)C4)CC3=O)cc21 [Example 200, (R)-3-(2,6-difluoro-4-((R)-3-(3-oxo-4-(((R,E)-1^1,2^6,7-trimethyl-3-oxo-5^2,5^3-dihydro-1^1H,5^1H-11-oxa-4-aza-5(2,1)-benzo[d]imidazola-2(2,4)-pyridina-1(4,5)-pyrazolacycloundecaphane-5^6-yl)methyl)piperazine-1-carbonyl)pyrrolidin-1-yl)phenyl)piperidine-2,6-dione]",73.04%
1.32 nM,0.89 nM,78.8%,"COC[C@@H]1CN(Cc2ccc3c(c2)N2C[C@H](C)CCCOc4c(cnn4C)-c4cc(cc(C)n4)C(=O)/N=C/2N3)CCN1C(=O)[C@@H]1CCN(c2cc(F)c([C@H]3CCC(=O)NC3=O)c(F)c2)C1 [Example 202, (R)-3-(2,6-difluoro-4-((R)-3-((S)-2-(methoxymethyl)-4-(((R,E)-1^1,2^6,7-trimethyl-3-oxo-5^2,5^3-dihydro-1^1H,5^1H-li-oxa-4-aza-5(2,1)-benzo[d]imidazola-2(2,4)-pyridina-(4,5)-pyrazolacycloundecaphane-5^6-yl)methyl)piperazine-1-carbonyl)pyrrolidin-1-yl)phenyl)piperidine-2,6-dione]",72.07%
0.901 nM,0.852 nM,85.1%,"Cc1cc2cc(n1)-c1cnn(C)c1OCCC[C@@H](C)CN1/C(=N/C2=O)Nc2ccc(CN3CCN(C(=O)[C@@H]4CCN(c5ccc(F)c6c5n(C)c(=O)n6C5CCC(=O)NC5=O)C4)CC3)cc21 (stereo partly drawn) [Example 211, 3-(7-fluoro-3-methyl-2-oxo-4-((R)-3-(4-(((R,E)-1^1,2^6,7-trimethyl-3-oxo-5^2,5^3-dihydro-1^1H,5^1H-11-oxa-4-aza-5(2,1)-benzo[d]imidazola-2(2,4)-pyridina-1(4,5)-pyrazolacycloundecaphane-5^6-yl)methyl)piperazine-1-carbonyl)pyrrolidin-1-yl)-2,3-dihydro-1H-benzo[d]imidazol-1-yl)piperidine-2,6-dione]",75.24%

# The remaining lines, values behind:
SMILES,DC50 (Del19/T790M/C797S EGFR),DC50 (L858R/T790M/C797S EGFR),Dmax (L858R/T790M/C797S EGFR),Dmax (%) (Del19/T790M/C797S EGFR)
"Cc1cc2cc(n1)-c1cnn(C3CC3)c1OCCC[C@@H](C)CN1/C(=N/C2=O)Nc2ccc(CN3CCN(C(=O)[C@H]4CN(c5cc(F)c([C@H]6CCC(=O)NC6=O)c(F)c5)CC4(C)C)CC3)cc21 [Example 165, (R)-3-(4-((R)-4-(4-(((R,E)-11-cyclopropyl-2^6,7-dimethyl-3-oxo-5^2,5^3-dihydro-1^1H,5^1H-11-oxa-4-aza-5(2,1)-benzo[d]imidazola-2(2,4)-pyridina-1(4,5)-pyrazolacycloundecaphane-5^6-)n-methyl)piperazine-1-carbonyl)-3,3-dimethylpyrrolidin-1-yl)-2,6-difluorophenyl)piperidine-2,6-dione]",2.95 nM,3.1 nM,79.9%,74.73%
"Cc1cc2cc(n1)-c1cnn(C)c1OCCC[C@@H](C)CN1/C(=N/C2=O)Nc2ccc(N(C)C3CCN(C(=O)[C@@H]4CCN(c5cc(F)c([C@H]6CCC(=O)NC6=O)c(F)c5)C4)CC3)cc21 [Example 172, (R)-3-(2,6-difluoro-4-((R)-3-(4-(methyl((R,E)-1^1,2^6,7-trimethyl-3-oxo-5^2,5^3-dihydro-1^1H,5^1H-11-oxa-4-aza-5(2,1)-benzo[d]imidazola-2(2,4)-pyridina-1(4,5)-pyrazolacycloundecaphane-5^6-yl)amino)piperidine-1-carbonyl)pyrrolidin-1-yl)phenyl)piperidine-2,6-dione]",0.663 nM,0.954 nM,90.6%,75.08%
"Cc1cc2cc(n1)-c1cnn(C)c1OCCC[C@@H](C)CN1/C(=N/C2=O)Nc2ccc(CN3C[C@@H]4C[C@H]3CN4C(=O)[C@H]3CN(c4cc(F)c([C@H]5CCC(=O)NC5=O)c(F)c4)CC3(C)C)cc21 [Example 185, (R)-3-(4-((R)-3,3-dimethyl-4-((1S,4S)-5-(((R,E)-1^1,2^6,7-trimethyl-3-oxo-5^2,5^3-dihydro-1^1H,5^1H-11-oxa-4-aza-5(2,1)-benzo[d]imidazola-2(2,4)-pyridina-1(4,5)-pyrazolacycloundecaphane-5^6-yl)methyl)-2,5-diazabicyclo[2.2.1]heptane-2-carbonyl)pyrrolidin-1-yl)-2,6-difluorophenyl)piperidine-2,6-dione]",0.752 nM,1.04 nM,87.1%,60.18%
"Cc1cc2cc(n1)-c1cnn(C)c1OCCC[C@@H](C)CN1/C(=N/C2=O)Nc2ccc(CN3C4CCC3CN(C(=O)[C@@H]3CCN(c5cc(F)c([C@H]6CCC(=O)NC6=O)c(F)c5)C3)C4)cc21 [Example 187, (3R)-3-(2,6-difluoro-4-((3R)-3-(8-(((R,E)-1^1,2,7-trimethyl-3-oxo-5^2,5^3-dihydro-1^1H,5^1H-11-oxa-4-aza-5(2,1)-benzo[d]imidazola-2(2,4)-pyridina-1(4,5)-pyrazolacycloundecaphane-5^6-yl)methyl)-3,8-diazabicyclo[3.2.1]octane-3-carbonyl)pyrrolidin-1-yl)phenyl)piperidine-2,6-dione]",1.8 nM,1.01 nM,86.1%,80.62%
"Cc1cc2cc(n1)-c1cnn(C)c1OCCC[C@@H](C)CN1/C(=N/C2=O)Nc2ccc(CN3CCN(C(=O)[C@@H]4CCN(c5cc(F)c([C@H]6CCC(=O)NC6=O)c(F)c5)C4(C)C)C[C@@H]3C)cc21 [Example 190, (R)-3-(4-((R)-2,2-dimethyl-3-((S)-3-methyl-4-(((R,E)-1^1,2^6,7-trimethyl-3-oxo-5^2,5^3-dihydro-1^1H,5^1H -11-oxa-4-aza-5(2,1)-benzo[d]imidazola-2(2,4)-pyridina-(4,5)-pyrazolacycloundecaphane-5^6-yl)methyl)piperazine-1-carbonyl)pyrrolidin-1-yl)-2,6-difluorophenyl)piperidine-2,6-dione]",0.742 nM,1.17 nM,82.2%,64.16%
"COC[C@H]1CN(C(=O)[C@@H]2CCN(c3cc(F)c([C@H]4CCC(=O)NC4=O)c(F)c3)C2)CCN1Cc1ccc2c(c1)N1C[C@H](C)CCCOc3c(cnn3C)-c3cc(cc(C)n3)C(=O)/N=C/1N2 [Example 194, (R)-3-(2,6-difluoro-4-((R)-3-((R)-3-(methoxymethyl)-4-(((R,E)-1^1,2^6,7-trimethyl-3-oxo-5^2,5^3-dihydro-1^1H,5^1H-11-oxa-4-aza-5(2,1)-benzo[d]imidazola-2(2,4)-pyridina-1(4,5)-pyrazolacycloundecaphane-5′-yl)methyl)piperazine-1-carbonyl)pyrrolidin-1-yl)phenyl)piperidine-2,6-dione]",0.836 nM,1.18 nM,84.4%,79.44%
"Cc1cc2cc(n1)-c1cnn(C)c1OCCC[C@@H](C)CN1/C(=N/C2=O)Nc2ccc(CN3CCN(C(=O)[C@@H]4CCN(c5cc(F)c([C@H]6CCC(=O)NC6=O)c(F)c5)C4)C[C@@H]3CO)cc21 [Example 195, (R)-3-(2,6-difluoro-4-((R)-3-((R)-3-(hydroxymethyl)-4-(((R,E)-1^1,2^5,7-trimethyl-3-oxo-5^2,5^3-dihydro-1^1H,5^1H-11-oxa-4-aza-5(2,1)-benzo[d]imidazola-2(2,4)-pyridina-(4,5)-pyrazolacycloundecaphane-5^6-yl)methyl)piperazine-1-carbonyl)pyrrolidin-1-yl)phenyl)piperidine-2,6-dione]",0.712 nM,0.731 nM,85.5%,76.37%
"Cc1cc2cc(n1)-c1cnn(C)c1OCCC[C@@H](C)CN1/C(=N/C2=O)Nc2ccc(CN3CCN(C(=O)[C@@H]4CCN(c5cc(F)c([C@H]6CCC(=O)NC6=O)c(F)c5)C4)C[C@H]3CO)cc21 [Example 196, (R)-3-(2,6-difluoro-4-((R)-3-((S)-3-(hydroxymethyl)-4-(((R,E)-1^1,2^6,7-trimethyl-3-oxo-5^2,5^3-dihydro-1^1H,5^1H-11-oxa-4-aza-5(2,1)-benzo[d]imidazola-2(2,4)-pyridina-1(4,5)-pyrazolacycloundecaphane-56-yl)methyl)piperazine-1-carbonyl)pyrrolidin-1-yl)phenyl)piperidine-2,6-dione]",0.598 nM,0.716 nM,87.1%,78.44%
